Test results taken from patent US20250034161A1, “SPIROCYCLIC COMPOUND AS KRAS-G12C INHIBITOR” (Shanghai Euregen Biopharma Co., Ltd., priority 2020, published 2025).

Legend:
[1] = tested on: phosphorylation level of ERK in NCI-H358 cells; experiment: NCI-H358 pERK inhibitory activity (HTRF phospho-ERK); format: cell-based; conditions: Homo sapiens, 1 hour incubation
Procedure: Test purpose: to detect the inhibitory effect of the test compound on the phosphorylation level of ERK in NCI-H358 cells. • 2. […] Test method:
NCI-H358 cells suspension was seeded at 80 μL per well in a clear 96-well cell culture plate, with 10000 cells each well. The cell culture plate was placed in an incubator and incubated overnight at 37° C. under 5% CO2. After incubation, the cell supernatant was discarded, 80 μL of PRMI1640 medium containing 0.02% serum was added to each well, and the cell culture plate was placed in an incubator and incubated overnight at 37° C., under 5% CO2. The test compound was diluted with 100% DMSO to 4 mmol/L as the first concentration, and then diluted 5-fold to the 8th concentration using a pipette. 2 μL of compound or DMSO (as negative control) was taken and added with 158 μL of cell culture medium. After mixing evenly, 20 μL of the compound solution was taken and added to corresponding cell plate well. […] After incubation, the signals at 615 nm and 665 nm were read using a multi-label analyzer. The percent inhibition was calculated according to the following formula: Ratio=(signal 665 nm/signal 615 nm)×10000; the percent inhibition=(ratio of test compound-ratio of negative control)/(ratio of blank-ratio of negative control)×100%.

[2] = tested on: NCI-H23 (G12C); experiment: Cell selectivity test, proliferation inhibition NCI-H23; format: cell-based; conditions: Homo sapiens, 72 hours
Text: (§1) • 1. Test purpose: to detect the proliferation inhibition of the test compounds on NCI-H23, NCI-H2122, HCC827, Mia paca2, A549 and SW837 cell lines. • 2. […] No. FND500); Penicillin-streptomycin was purchased from Gibco (Art. No. 15140-122); 0.25% trypsin-ethylenediaminetetraacetic acid digestive juice (Trypsin-EDTA) was purchased from Gibco (Art. No. 25200-072); dimethyl sulfoxide (DMSO) was purchased from Sigma (Art. No. D2650); 96-well cell plate was purchased from Corning (Art. No. 3610); incubator was purchased from NuAire (model number: NU-5700E); Biosafety cabinet was purchased from AuAire (model number: NU-543-600S); Inverted microscope was purchased from Nikon (Art. No. TS-100); Automated cell counter was purchased from Life technologies (model number: Countess II); Microplate reader was purchased from PerkinElmer (model number: Envision); the data processing software was GraphPad Prism 5.0. […]

[3] = tested on: NCI-H2122 (G12C); experiment: Cell selectivity test, proliferation inhibition NCI-H2122; format: cell-based; conditions: Homo sapiens, 72 hours
Text: as §1

[4] = tested on: Mia paca2(G12C); experiment: Cell selectivity test, proliferation inhibition Mia paca2; format: cell-based; conditions: Homo sapiens, MIA PaCa-2, 72 hours
Text: as §1

[5] = tested on: SW837(G12C); experiment: Cell selectivity test, proliferation inhibition SW837; format: cell-based; conditions: Homo sapiens, 72 hours
Text: as §1

[6] = tested on: A549(G12S); experiment: Cell selectivity test, proliferation inhibition A549; format: cell-based; conditions: Homo sapiens, 72 hours
Text: as §1

[7] = tested on: HCC827(wt); experiment: Cell selectivity test, proliferation inhibition HCC827; format: cell-based; conditions: Homo sapiens, 72 hours
Text: as §1

[8] = Pharmacokinetics study in mice (IV and PO); format: in vivo; conditions: ICR male mice
Procedure: Preparation of 0.5% methyl cellulose: 5 g of methyl cellulose were weighed and dissolved in 1000 mL of purified water.
Preparation of oral formulation: a required amount of the test compound was weighed and dissolved in 0.5% methyl cellulose solution to obtain a suspension or solution of 0.5 mg/mL.
Preparation of intravenous injection formulation: a required amount of test compound was weighed, and dissolved in 0.5 mL of dimethyl sulfoxide to prepare a solution of 4 mg/mL. 0.06 mL of the above solution was taken, and 0.12 mL of polyethylene glycol 15 hydroxystearate (solutol) and 1.02 mL of normal saline were added thereto to obtain a solution of 0.2 mg/mL.
Feeding 4 hours after administration.
Sample Collection: blood was collected via the jugular vein or other suitable vein, and 0.03 mL blood was collected at each time point. Samples were placed into tubes containing ethylenediaminetetraacetic acid dipotassium salt and kept on ice before centrifugation. Within 1 hour after blood collection, the blood samples were centrifuged at 2-8° C. and 6800 g for 6 minutes and stored at −80° C. The time points for blood collection were 0.083, 0.25, 0.5, 1, 2, 4, 8 and 24 hours after intravenous and oral administration.

[9] = molecular target: CYP 2D6 (Homo sapiens, UniProt P10635); experiment: CYP inhibition test, human liver microsomes, CYP2D6
Chain of CYP 2D6 (P10635 whole entry): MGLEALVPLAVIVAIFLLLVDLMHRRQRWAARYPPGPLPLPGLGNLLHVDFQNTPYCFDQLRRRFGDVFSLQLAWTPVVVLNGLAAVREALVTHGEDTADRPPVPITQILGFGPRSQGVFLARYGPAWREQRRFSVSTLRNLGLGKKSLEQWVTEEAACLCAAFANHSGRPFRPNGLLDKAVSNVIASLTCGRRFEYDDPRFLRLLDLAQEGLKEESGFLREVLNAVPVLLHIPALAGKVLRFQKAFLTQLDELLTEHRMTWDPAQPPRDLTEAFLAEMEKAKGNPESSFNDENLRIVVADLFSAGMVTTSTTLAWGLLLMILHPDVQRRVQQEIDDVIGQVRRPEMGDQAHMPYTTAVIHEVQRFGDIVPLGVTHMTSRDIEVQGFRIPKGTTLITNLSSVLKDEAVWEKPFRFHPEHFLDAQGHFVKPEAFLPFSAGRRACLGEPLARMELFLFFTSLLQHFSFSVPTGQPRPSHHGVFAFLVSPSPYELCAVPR
Procedure: • 1. Test purpose: to evaluate the inhibitory ability of some of the example compounds of the present invention against CYP1A2, 2B6, 2C8, 2C9, 2C19, 2D6 and 3A4 via human liver microsomes. • 2. […] Test method:
• 1. K/Mg buffer: the components were 0.1 mol/L potassium phosphate and 5 mmol/L magnesium chloride with pH 7.4±0.1, preheated. • 2. Solution of the test compound: the test compound was dissolved in dimethyl sulfoxide to prepare a stock solution of 10 mmol/L. 8 μL of 10 mmol/L stock solution was transferred to a 96-well plate containing 12 μL of acetonitrile as the highest concentration point, at 3-fold dilution, for 8 concentrations. • 3. […] Human liver microsomal stock solution: human liver microsomes were dissolved in 0.1 mol/L K/Mg buffer to obtain 20 mg/mL stock solution. • 5. Human liver microsomal working solution: 10 μL of 20 mg/mL human liver microsomal stock solution was taken and added into 990 μL of 0.1 mol/L K/Mg buffer to prepare 0.2 mg/mL human liver microsomal solution. • 6.
600 μL of 0.2 mg/mL human liver microsomal solution and 3 μL of stepwise diluted test compound solution were added to the 96-well plate. 30 μL of the above solution was added on the 96-well plate followed by the addition of 15 μL of the corresponding substrate solution. […]

[10] = mouse, plasma, intravenous injection, 1 mg/kg
[11] = mouse, plasma, oral gavage, 5 mg/kg

Structure (SMILES) | IC50 [1] [nM] | IC50 [2] [nM] | IC50 [3] [nM] | IC50 [4] [nM] | IC50 [5] [nM] | IC50 [6] [nM] | IC50 [7] [nM] | F ([8]; oral gavage, 5 mg/kg) [%] | AUC(0-inf) [8, 10] [ng·h/mL] | Cmax [8, 10] [ng/mL] | clearance [8, 10] [mL/min/kg] | half-life [8, 10] [min] | Vd ([8]; mouse, plasma, intravenous injection, 1 mg/kg, read-out: Vz) [L/kg] | AUC(0-inf) [8, 11] [ng·h/mL] | Cmax [8, 11] [ng/mL] | half-life [8, 11] [min] | IC50 [9] [nM]
C=CC(=O)N1CCN(c2nc(=O)n(-c3c(C)ccnc3C(C)C)c3nc(-c4c(O)cccc4F)c(F)cc23)[C@@H](C)C1 [AMG510] | 88.3 | 7.55 | 27 | 15.7 | 285 | > 10000 | > 10000 | 0.33 | 227 | 623 | 74.7 | 13.2 | 1.42 | 6.12 | 7.25 | 21.6 | > 10000
C=C(F)C(=O)N1CCN(c2nc(OC[C@@H]3CCCN3C)nc3c2CCN(c2cccc4cccc(Cl)c24)C3)C[C@@H]1CC#N [MRTX849] | – | – | – | – | – | – | – | – | – | – | – | – | – | – | – | – | 9720
